In patent US5739166A, “Substituted terphenyl compounds for the treatment of inflammation” (G.D. Searle & Co., priority 1994, dated 1998):

Test system: hyperalgesic foot withdrawal
Test: Rat Carrageenan-induced Analgesia Test
Type: in vivo, Male Sprague-Dawley rats
Conditions: oral, assay performed at 50 mg/kg body weight, 3 hours after carrageenan
Method: Male Sprague-Dawley rats were treated as previously described for the Carrageenan Foot Pad Edema test. Three hours after the injection of the carrageenan, the rats were placed in a special plexiglass container with a transparent floor having a high intensity lamp as a radiant heat source; positionable under the floor. After an initial twenty minute period, thermal stimulation was begun on either the injected foot or on the contralateral uninjected foot. A photoelectric cell turned off the lamp and timer when light was interrupted by paw withdrawal. The time until the rat withdraws its foot was then measured. The withdrawal latency in seconds was determined for the control and drug-treated groups, and percent inhibition of the hyperalgesic foot withdrawal determined.

Question: How did the “ANALGESIA % Inhibition” value turn out when `COc1ccc(-c2cc(F)c(F)cc2-c2ccc(S(N)(=O)=O)cc2)cc1Cl` [Example 20, 4-[2-(3-chloro-4-methoxyphenyl)-4,5-difluorophenyl]benzenesulfonamide] was run?
Answer: 22%
